Measurements reported in US11077090B2, “Compounds and compositions and uses thereof” (Sunovion Pharmaceuticals Inc., priority 2016, dated 2021).
Read-outs that look alike come from different tables or passages of the source.

Test system: compound-treated mice
Experiment: Neuropharmacological assay (SmartCube): behavioral activity signature and minimal effective dose
Format: in vivo
Conditions: for minimal effective dose: Mus musculus, ip, MED = dose having 50% or more total activity; for AD: ADHD (probability of activity signature) / AG: analgesic (probability of activity signature) / AX: anxiolytic (probability of activity signature) / CE: cognitive enhancer (probability of activity signature) / DP: anti-depressant (probability of activity signature) / MS: mood stabilizer (probability of activity signature) / PS: anti-psychotic (probability of activity signature) / SD: sedative hypnotic (probability of activity signature) / UN: uncharacterized CNS activity (probability of activity signature): i.p. 15 min before test, most efficacious dose(s)
Procedure, shortened: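 Mice dosed i.p. 15 min before test, compound in N-methyl-2-pyrrolidone/PEG/propylene glycol, 3 doses; video-captured behavior matched to reference-drug signatures, giving per-class probabilities at most efficacious dose. MED from doses typically 0.3–30 mpk, defined as lowest dose with ≥50% total activity.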

[1] = read-out: Potency: minimal effective dose (MED), binned
[2] = read-out: Potency: minimal effective dose (MED)

SMILES | minimal effective dose [1] [mg/kg] | AD: ADHD (probability of activity signature) | AG: analgesic (probability of activity signature) | AX: anxiolytic (probability of activity signature) | CE: cognitive enhancer (probability of activity signature) | DP: anti-depressant (probability of activity signature) | MS: mood stabilizer (probability of activity signature) | PS: anti-psychotic (probability of activity signature) | SD: sedative hypnotic (probability of activity signature) | UN: uncharacterized CNS activity (probability of activity signature) | minimal effective dose [2] [mg/kg]
CCN(C)C(=O)Oc1ccc2c(c1)C(N)COC2.Cl (stereo not drawn) [Example 277, 4-Aminoisochroman-6-yl ethyl(methyl)carbamate hydrochloride] | > 30 | + (LOQ ≤ + <5%) | + (LOQ ≤ + <5%) | + (LOQ ≤ + <5%) | + (LOQ ≤ + <5%) | + (LOQ ≤ + <5%) | + (LOQ ≤ + <5%) | + (LOQ ≤ + <5%) | + (LOQ ≤ + <5%) | + (LOQ ≤ + <5%) | –
N[C@@H]1COCc2c(Cl)cccc21 [Example 131] | – | + (LOQ ≤ + <5%) | + (LOQ ≤ + <5%) | ++ (5% ≤ ++ <25%) | +++ (25% ≤ +++ <50%) | ++ (5% ≤ ++ <25%) | ++ (5% ≤ ++ <25%) | ++ (5% ≤ ++ <25%) | ++ (5% ≤ ++ <25%) | +++ (25% ≤ +++ <50%) | < 3
CC[C@@H]1OCc2ccccc2[C@@H]1N (single isomer, unassigned) [Example 191] | < 3 | + (LOQ ≤ + <5%) | ++ (5% ≤ ++ <25%) | ++ (5% ≤ ++ <25%) | ++ (5% ≤ ++ <25%) | ++ (5% ≤ ++ <25%) | + (LOQ ≤ + <5%) | ++ (5% ≤ ++ <25%) | ++ (5% ≤ ++ <25%) | ++++ (50% ≤ ++++) | –
C[C@H]1OCc2ccccc2[C@@H]1N (single isomer, unassigned) [Example 151] | – | + (LOQ ≤ + <5%) | ++ (5% ≤ ++ <25%) | +++ (25% ≤ +++ <50%) | ++ (5% ≤ ++ <25%) | ++ (5% ≤ ++ <25%) | + (LOQ ≤ + <5%) | ++ (5% ≤ ++ <25%) | ++ (5% ≤ ++ <25%) | ++ (5% ≤ ++ <25%) | 3 to 10
CCN(C)C(=O)Oc1ccc2c(c1)CO[C@H](C)[C@H]2N(C)C.Cl [Example 286] | 10 to 30 | + (LOQ ≤ + <5%) | + (LOQ ≤ + <5%) | + (LOQ ≤ + <5%) | + (LOQ ≤ + <5%) | ++ (5% ≤ ++ <25%) | ++ (5% ≤ ++ <25%) | + (LOQ ≤ + <5%) | ++ (5% ≤ ++ <25%) | ++ (5% ≤ ++ <25%) | –
Cc1ccc2c(c1C)C(N(C)C)COC2.Cl (stereo not drawn) [Example 61] | – | + (LOQ ≤ + <5%) | ++ (5% ≤ ++ <25%) | ++ (5% ≤ ++ <25%) | ++ (5% ≤ ++ <25%) | + (LOQ ≤ + <5%) | + (LOQ ≤ + <5%) | ++ (5% ≤ ++ <25%) | + (LOQ ≤ + <5%) | ++++ (50% ≤ ++++) | 10 to 30
